The source of these data is patent publication US11279697B2, “Aromatic derivative, preparation method for same, and medical applications thereof” (BIOARDIS LLC, priority 2017, dated 2022).

SMILES strings stand for the structures.

Chain of human FGFR4 protein (460-802 amino acids) (P22455 460-802): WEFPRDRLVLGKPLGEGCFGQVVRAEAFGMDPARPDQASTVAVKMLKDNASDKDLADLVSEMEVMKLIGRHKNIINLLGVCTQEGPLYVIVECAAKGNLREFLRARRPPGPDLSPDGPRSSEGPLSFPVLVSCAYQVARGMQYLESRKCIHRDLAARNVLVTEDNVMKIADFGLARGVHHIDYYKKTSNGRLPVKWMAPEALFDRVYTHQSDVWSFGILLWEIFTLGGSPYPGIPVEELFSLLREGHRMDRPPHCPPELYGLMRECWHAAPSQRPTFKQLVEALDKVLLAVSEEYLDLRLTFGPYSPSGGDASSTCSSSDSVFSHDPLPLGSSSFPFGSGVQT

The target of the experiment is human FGFR4 protein (460-802 amino acids) (Homo sapiens (Human), UniProt P22455). Description: FGFR4 Activity Inhibition Test (HTRF KinEASE-TK in vitro kinase assay). It is filed as biochemical. Particulars: compound-enzyme incubation 60 min at room temperature, kinase reaction 37° C. 40 min, 10 concentration points. The procedure:
The influence of the compound of the present invention on the activity of the tyrosine kinase FGFR4 was evaluated by an in vitro kinase assay experiment. The experimental method is summarized as follows: A HTRF® KinEASE™-TK 20000 tests kinase assay kit from CISBIO Corp. was used. The kit provided a biotin-labeled substrate, an EU-labeled phosphorylation site-specific antibody, and XL665-labeled avidin and a related buffer. FGFR4 phosphorylated the substrate, Eu-Ab identified the phosphorylated substrate, and XL665-SA binded to the biotin on the substrate, making Eu get closer to XL665, thus generating the HTRF signal. Changes in the activity of kinase was detected by reading the intensity of the HTRF signal. In the kinase assay experiment, there were mainly two steps of reaction: kinase reaction and assay reaction, respectively. In the kinase reaction, the kinase consumed ATP to phosphorylate the substrate, and at the same time produced a substrate containing a phosphate group. In the assay reaction, an assay reagent was added to terminate the kinase reaction. At the same time, the specific antibody and the XL665-labeled avidin in the assay reagent were binded to the phosphate group on the substrate and biotin respectively to generate HTRF signals. The signal intensity was directly proportional to the phosphorylation level of the substrate, and thereby the activity of the kinase FGFR4 could be quantitatively assayed. During the assay, the binding and incubation of the compound with the enzyme was carried out at room temperature for 60 min. The kinase reaction was carried out at a constant temperature of 37° C. for 40 min. […] The kinase substrates were TK (commercially available from Cisbio) and ATP (Sigma). The optical signals were read by a microplate reader TECAN Spark 10M plate reader (TECAN). The kinase reaction buffer comprised 1× Enzymatic buffer (CISBIO) 5 mM MgCl2 (Sigma) and 1 mM DTT (Sigma). […] First, the compound was dissolved and diluted with 100% DMSO into a 96-well plate at 3 concentrations: 4 mM, 40 μM, and 0.4 μM. […] Each concentration point was provided with two copy holes (starting point 10 μM, 3-fold dilution). First, 6 μL of the kinase solution was added into the 384-well assay plate, mixed uniformly and then incubated at room temperature for 60 min. Then 4 μL of the substrate reaction solution was added, and the total reaction volume was 10 μL. […] Subsequently, 10 μL of the kinase assay reagent was added and the reaction was terminated. Then the numerical values were read on the TECAN plate reader. The inhibition percentage was calculated based on the following formula: % inhibition=[1−(RLUcompound−RLUmin)/(RLUmax−RLUmin)]×100 wherein RLUcompound is the luminescence reading at the given compound concentration, RLUmin is the luminescence reading without the addition of kinase, and RLUmax is the luminescence reading without the addition of the compound. IC50 of the compound was calculated by the XLfit program in Excel.
`C=CC(=O)Nc1cnn(C)c1-c1n[nH]c2c1CC[C@@H](c1c(F)c(OC)cc(OC)c1F)C2` (single isomer, unassigned) [Compound 281-P1, N-(5-(6-(2,6-difluoro-3,5-dimethoxyphenyl)-4,5,6,7-tetrahydro-1H-indazol-3-yl)-1-methyl-1H-pyrazol-4-yl)acrylamide] came in with an IC50 of 5.73 nM.

For `C=CC(=O)Nc1cnn(C)c1-c1n[nH]c2c1CC[C@@H](c1c(F)c(OC)cc(OC)c1F)C2` (single isomer, unassigned) [Compound 281-P2, N-(5-(6-(2,6-difluoro-3,5-dimethoxyphenyl)-4,5,6,7-tetrahydro-1H-indazol-3-yl)-1-methyl-1H-pyrazol-4-yl)acrylamide], 2.96 nM corresponded to half-maximal inhibition (IC50).

The compound `C=CC(=O)Nc1ccc(N2CCN(C)CC2)cc1-c1n[nH]c2c1CC[C@@H](c1c(Cl)c(OC)cc(OC)c1Cl)C2` (single isomer, unassigned) [Compound 283-P1, N-(2-(6-(2,6-dichloro-3,5-dimethoxyphenyl)-4,5,6,7-tetrahydro-1H-indazol-3-yl)-4-(4-methylpiperazin-1-yl)phenyl)acrylamide] returned an IC50 of 190 nM. This IC50 lies about 64-fold higher than the previous one.

Compound `C=CC(=O)Nc1ccc(N2CCN(C)CC2)cc1-c1n[nH]c2c1CC[C@@H](c1c(Cl)c(OC)cc(OC)c1Cl)C2` (single isomer, unassigned) [Compound 283-P2, N-(2-(6-(2,6-dichloro-3,5-dimethoxyphenyl)-4,5,6,7-tetrahydro-1H-indazol-3-yl)-4-(4-methylpiperazin-1-yl)phenyl)acrylamide] came in with an IC50 of 45 nM.

`C=CC(=O)Nc1ccc(Cl)cc1-c1n[nH]c2c1CC[C@@H](c1c(Cl)c(OC)cc(OC)c1Cl)C2` (single isomer, unassigned) [Compound 287-P1, N-(4-chloro-2-(6-(2,6-dichloro-3,5-dimethoxyphenyl)-4,5,6,7-tetrahydro-1H-indazol-3-yl)phenyl)acrylamide]: the IC50 stood at 158 nM.

As to `C=CC(=O)Nc1ccc(Cl)cc1-c1n[nH]c2c1CC[C@@H](c1c(Cl)c(OC)cc(OC)c1Cl)C2` (single isomer, unassigned) [Compound 287-P2, N-(4-chloro-2-(6-(2,6-dichloro-3,5-dimethoxyphenyl)-4,5,6,7-tetrahydro-1H-indazol-3-yl)phenyl)acrylamide], 91.1 nM corresponded to half-maximal inhibition (IC50).

Take `C=CC(=O)Nc1cc(Cl)ccc1-c1n[nH]c2c1CC[C@@H](c1c(Cl)c(OC)cc(OC)c1Cl)C2` (single isomer, unassigned) [Compound 289-P1, N-(5-chloro-2-(6-(2,6-dichloro-3,5-dimethoxyphenyl)-4,5,6,7-tetrahydro-1H-indazol-3-yl)phenyl)acrylamide]: it took 109 nM to reach half-maximal inhibition (IC50).

For `C=CC(=O)Nc1cc(Cl)ccc1-c1n[nH]c2c1CC[C@@H](c1c(Cl)c(OC)cc(OC)c1Cl)C2` (single isomer, unassigned) [Compound 289-P2, N-(5-chloro-2-(6-(2,6-dichloro-3,5-dimethoxyphenyl)-4,5,6,7-tetrahydro-1H-indazol-3-yl)phenyl)acrylamide], the IC50 is 210 nM.

`C=CC(=O)Nc1ccc(N2CCN(C)CC2)cc1-c1n[nH]c2c1CC[C@@H](c1c(F)c(OC)cc(OC)c1F)C2` (single isomer, unassigned) [Compound 301-P1, N-(2-(6-(2,6-difluoro-3,5-dimethoxyphenyl)-4,5,6,7-tetrahydro-1H-indazol-3-yl)-4-(4-methylpiperazin-1-yl)phenyl)acrylamide] displayed a 50% inhibitory concentration (IC50) of 3.4 nM.

As to `C=CC(=O)Nc1ccc(N2CCN(C)CC2)cc1-c1n[nH]c2c1CC[C@@H](c1c(F)c(OC)cc(OC)c1F)C2` (single isomer, unassigned) [Compound 301-P2, N-(2-(6-(2,6-difluoro-3,5-dimethoxyphenyl)-4,5,6,7-tetrahydro-1H-indazol-3-yl)-4-(4-methylpiperazin-1-yl)phenyl)acrylamide], the half-inhibitory concentration (IC50) stood at 11.8 nM.

`C=CC(=O)Nc1cnn(C)c1-c1n[nH]c2c1CC[C@@H](c1cc(OC)cc(OC)c1F)C2` (single isomer, unassigned) [Compound 302-P1, N-(5-(6-(2-fluoro-3,5-dimethoxyphenyl)-4,5,6,7-tetrahydro-1H-indazol-3-yl)-1-methyl-1H-pyrazol-4-yl)acrylamide] yielded a 50% inhibitory concentration (IC50) of 85.5 nM. Compared with the last compound, the IC50 is about 7.2-fold higher.

In turn, `C=CC(=O)Nc1cnn(C)c1-c1n[nH]c2c1CC[C@@H](c1cc(OC)cc(OC)c1F)C2` (single isomer, unassigned) [Compound 302-P2, N-(5-(6-(2-fluoro-3,5-dimethoxyphenyl)-4,5,6,7-tetrahydro-1H-indazol-3-yl)-1-methyl-1H-pyrazol-4-yl)acrylamide] registered an IC50 of 35.4 nM.

The compound `C=CC(=O)Nc1cnn(C)c1-c1n[nH]c2c1CC[C@@H](c1c(F)c(OC)cc(OC)c1Cl)C2` (single isomer, unassigned) [Compound 303-P1, N-(5-(6-(2-chloro-6-fluoro-3,5-dimethoxyphenyl)-4,5,6,7-tetrahydro-1H-indazol-3-yl)-1-methyl-1H-pyrazol-4-yl)acrylamide] showed an IC50 of 6 nM. This IC50 is about 5.9-fold lower than that of the compound before.

For the compound `C=CC(=O)Nc1cnn(C)c1-c1n[nH]c2c1CC[C@@H](c1c(F)c(OC)cc(OC)c1Cl)C2` (single isomer, unassigned) [Compound 303-P2, N-(5-(6-(2-chloro-6-fluoro-3,5-dimethoxyphenyl)-4,5,6,7-tetrahydro-1H-indazol-3-yl)-1-methyl-1H-pyrazol-4-yl)acrylamide], the IC50 is 5.5 nM.

In turn, `C=CC(=O)Nc1cnn(C)c1-c1n[nH]c2c1CC[C@@H](c1cc(OC)cc(OC)c1)C2` (single isomer, unassigned) [Compound 310-P1, N-(5-(6-(3,5-dimethoxyphenyl)-4,5,6,7-tetrahydro-1H-indazol-3-yl)-1-methyl-1H-pyrazol-4-yl)acrylamide] returned an IC50 of 446 nM.

For `C=CC(=O)Nc1cnn(C)c1-c1n[nH]c2c1CC[C@@H](c1cc(OC)cc(OC)c1)C2` (single isomer, unassigned) [Compound 310-P2, N-(5-(6-(3,5-dimethoxyphenyl)-4,5,6,7-tetrahydro-1H-indazol-3-yl)-1-methyl-1H-pyrazol-4-yl)acrylamide], it took 171 nM to reach half-maximal inhibition (IC50).

Compound `C=CC(=O)Nc1cnn(C)c1-c1n[nH]c2c1CC[C@@H](c1cc(OC)cc(OC)c1Cl)C2` (single isomer, unassigned) [Compound 311-P1, N-(5-(6-(2-chloro-3,5-dimethoxyphenyl)-4,5,6,7-tetrahydro-1H-indazol-3-yl)-1-methyl-1H-pyrazol-4-yl)acrylamide] had a concentration for half-maximal inhibition (IC50) of 203 nM.

On to `C=CC(=O)Nc1cnn(C)c1-c1n[nH]c2c1CC[C@@H](c1cc(OC)cc(OC)c1Cl)C2` (single isomer, unassigned) [Compound 311-P2, N-(5-(6-(2-chloro-3,5-dimethoxyphenyl)-4,5,6,7-tetrahydro-1H-indazol-3-yl)-1-methyl-1H-pyrazol-4-yl)acrylamide], for which it took 129 nM to reach half-maximal inhibition (IC50). Against the preceding compound, the IC50 is about 1.6-fold lower.

With `C=CC(=O)Nc1ccccc1-c1n[nH]c2c1CCC(c1c(F)c(OC)cc(OC)c1F)C2` (centres unmarked) [Compound 093, N-(2-(6-(2,6-difluoro-3,5-dimethoxyphenyl)-4,5,6,7-tetrahydro-1H-indazol-3-yl)phenyl)acrylamide], the half-inhibitory concentration (IC50) worked out at 29.2 nM.

`CC#CC(=O)Nc1ccccc1-c1cc(CCc2c(Cl)c(OC)cc(OC)c2Cl)[nH]n1` [Compound 096, N-(2-(5-(2,6-dichloro-3,5-dimethoxyphenethyl)-1H-pyrazol-3-yl)phenyl)but-2-ynoic amide] yielded a concentration for half-maximal inhibition (IC50) of 348 nM.

`C=CC(=O)Nc1ccccc1-c1n[nH]c2c1CCC(c1cc(OC)cc(OC)c1F)C2` (centres unmarked) [Compound 114, N-(2-(6-(2-fluoro-3,5-dimethoxyphenyl)-4,5,6,7-tetrahydro-1H-indazol-3-yl)phenyl)acrylamide]: 158 nM corresponded to half-maximal inhibition (IC50).

For the compound `C=CC(=O)Nc1cc(F)ccc1-c1n[nH]c2c1CCC(c1c(Cl)c(OC)cc(OC)c1Cl)=C2` [Compound 296, N-(2-(6-(2,6-dichloro-3,5-dimethoxyphenyl)-4,5-dihydro-1H-indazol-3-yl)-5-fluorophenyl)acrylamide], half-maximal inhibition (IC50) was put at 118 nM. This IC50 and that of the compound before are within 1.5-fold of each other.

Turning to `C=CC(=O)Nc1ccc(F)cc1-c1n[nH]c2c1CCC(c1c(Cl)c(OC)cc(OC)c1Cl)=C2` [Compound 297, N-(2-(6-(2,6-dichloro-3,5-dimethoxyphenyl)-4,5-dihydro-1H-indazol-3-yl)-4-fluorophenyl)acrylamide], the IC50 was found to be 236 nM.

Broadly, the IC50 is the concentration that inhibits the measured activity by half. Lower therefore signals greater potency in that assay.
